The test system of one data set is panic-prone rats. The data set is described as follows: Sodium lactate challenge in panic-prone (l-allylglycine) rats. In kind it is in vivo, rat. The settings on record: for anxiety-like responses (social interaction duration) after sodium lactate: 30 mg/kg i.p. before 15 min i.v. 0.5M sodium lactate, FIG. 1b; for lactate induced increases in core body temperature / lactate induced increases in heart rate: 30 mg/kg i.p.; for lactate induced increases in core body temperature: FIG. 1c; for lactate induced increases in heart rate: FIG. 1d. An excerpt:
Panic disorder is associated with disruption of central inhibitory gamma-aminobutyric acid (GABAergic) tone, and may contribute to panic attacks which are consistently provoked by ordinarily mild physical stressors such as mild osmotic disturbances (e.g., intravenous sodium lactate challenges).
Orexin/hypocretin producing neurons are almost exclusive to dorsomedial hypothalamus and adjacent lateral hypothalamus, and play a critical role in maintaining wakefulness, vigilance and central sympathetic mobilization, which are key components of panic and anxiety. Experiments were conducted to investigate whether the administration of either a systemic orexin 1 antagonist or silencing the hypothalamic orexin gene product with RNA interference could block lactate-induced panic responses.

For data set [1], the system named is adult female rats (OVEX or tamoxifen). The data set is described as follows: Open field anxiety test in tamoxifen-treated or ovariectomized female rats. The format is in vivo, rat. The settings on record: for anxiety-like behavior (time spent in center of open field) in OVEX rats: 30 mg/kg i.p. 30 min prior to testing, OVEX female rats, FIG. 3B. As for the experimental part: FIG. 3A & 3B are bar graphs showing the effects of subcutaneously injecting adult female rats with 3 days of vehicles (10% DMSO, 90% sesame oil) or 10 mg/kg tamaoxifen (a nonselective estrogen receptor antagonist) on time spent in the center of an open field. * represents p,0.05 with unpaired t-test. n=6/group. […] Bars represent mean and error bars represent SEM. * represents p,0.05 Mann Whitney U test following an ANOVA f(3,35)=2.9, p=0.048.
Furthermore, experiments were conducted to investigate the impact of lowering estrogen activity by either administering tamoxifen or ovariectomizing rats.

Data set [2] deals with dorsomedial hypothalamus (DMH) of anesthetized rat. The experiment in a line: BMI microinjection into the DMH of anesthetized rats. The format is in vivo. The settings on record: 30 mg/kg i.p.; BMI 20 pmol/50 nL into DMH; FIG. 2; listed as SB334861. As for the experimental part:
FIG. 2 Continuous and simultaneous measurement of blood pressure (top panel), heart rate (middle panel), and core body temperature (bottom panel) in an isoflurane anesthetized rat after identical microinjections of BMI (20 pmol/50 nL) into the DMH (time marks 1 and 3) before and after systemic administration of the orexin-1 receptor antagonist SB334861 (30 mg/kg i.p.; time mark 2).
As disclosed herein, experiments were conducted to determine whether an orexin-1 receptor antagonist (SB334861) or an orexin-2 receptor antagonist (TCSOX229) could attenuate the physiologic responses to chemical stimulation of the DMH. Chemical stimulation or disinhibition of neurons in the region of the dorsomedial hypothalamus (DMH) was conducted using the GABAA receptor antagonist bicuculline methiodide (BMI). To test orexin inhibitors ability to attenuate the BMI stimulated response, BMI was microinjected (20 pmol/50 nL) into the DMH of urethane-anesthetized rats both before and after systemic administration of the orexin inhibitor, and the responses were monitored.

For data set [3], the system named is female ovariectomized, or sham-OVEX control, rats. The experiment in a line: Hypercapnia (20% CO2) challenge, tail skin temperature in OVEX rats. In kind it is in vivo, rat. To be noted: 30 mg/kg pretreatment. The text has this:
Hypercapnia model: There is also evidence that altered respiration patterns may trigger hot flashes whereas paced respiration may alleviate hot flash incidence and intensity. Increased or decreased respiration activity alters blood CO2/pH levels, and a hypersensitivity to CO2/pH may be present in conditions where estrogen activity is very low.

For data set [4] the following is noted: 30 mg/kg intraperitoneal; cited from earlier work.
The test system of another data set is ORX1 and ORX2 receptors. To be noted: cited from earlier work.
The conditions of data set [5]: under investigation for insomnia; cited from earlier work.
For the next data set, the system named is OVEX'ed rats. To be noted: cited from earlier work; for anxiety behaviors in the elevated plus maze (EPM) and open field tests (OFT): OVEX'ed rats; for block of the anxiety induced by OVEXing a female rat: daily s.c.: E2 0.25 mg/kg, DPN 1.0 mg/kg, PPT 1.0 mg/kg, Walf et al., 2010.
The test system of another data set is menopausal women. The settings on record: cited from earlier work.
In a further data set the test system is ORX-ir neurons. The experiment in a line: c-Fos induction in ORX-ir neurons after yohimbine. The format is in vivo, rat. The settings on record: 5 mg/kg i.p.; male rats; FIG. 5A. An excerpt: (§1) FIG. 5A & 5B are graphs showing the effects of yohimbine on cellular responses. […] Black and gray outlined bars respectively represent c-FOS/ORX double and total ORX-ir labeled neurons in the hypothalamus. *Mann-whiney U=1.5, p=0.001. […] Treatment by time effect F(89,267)=2.7, p<0.001.
(§2) Conversely, administering intravenous infusions of yohimbine (alpha2-adrenergic autoreceptor antagonist) to symptomatic, but not asymptomatic, menopausal women provokes “hot flashes” (Freedman et al, Obstet Gynecol, 1990. 76(4): p. 573-8). […] A dramatic drop in core body temp also immediately follows this, which also occurs in women following the onset of a hot flash.

The subject of data set [6] is female ovariectomized rats. The data set is described as follows: Yohimbine challenge, tail skin and core body temperature in OVEX rats. In kind it is in vivo, rat. The settings on record: 5 mg/kg i.p. As for the experimental part: as §1
To objectively measure “hot flash” (assessed by tail temp) related activity in female OVEX rats, magnetically activated radiotelemetry probes (dimensions: 3.5 cc volume with 0.05° C. resolution) were implanted subcutaneously under the skin on the back of rat. The probe has 2 leads, each with an ˜1 cm long temp sensor that can be implanted in the tail and into the abdominal cavity to respectively measure skin and core body temp (as well as general ambulatory activity) in freely moving rats for extended periods. Recently we used the dual thermistor probes and were able to replicate previous findings that tail temp decreases during active phase in sham-OVEX rats, but this decrease is blunted in OVEX rats (FIG. 4B).
as §2

Where [7] appears, read: listed as orexin 1 receptor antagonist.
[8] abbreviates: OVEX rats, 5 min 20% CO2, FIG. 6B.

“Also recorded” adds a separate entry of the source. A value given as a limit tells only on which side of the number the result lay.

In the case of `Cc1nnc2n1-c1ccc(Cl)cc1C(c1ccccc1)=NC2` [alprazolam], in the data set on panic-prone rats (alprazolam 3 mg/kg i.p., FIG. 1), the “lactate-induced responses versus vehicle treated groups (Fisher's LSD, p<0.05)” value is “significant differences”.

Consider `CC/C(=C(\c1ccccc1)c1ccc(OCCN(C)C)cc1)c1ccccc1` [tamoxifen], for which, in data set [1] (tamoxifen 10 mg/kg s.c., 3 days, adult female rats, FIG. 3A), the “anxiety-like behavior (time spent in center of open field) compared to controls” value is “increased anxiety-like behavior”.

As to `Cc1nc2ccc(NC(=O)Nc3ccnc4cccnc34)cc2o1` [SB334867, 1-(2-methylbenzoxazol-6-yl)-3-[1,5]naphthyridin-4-yl urea], in the data set with panic-prone rats, the “anxiety-like responses (social interaction duration) after sodium lactate” value is “Blocks; also recorded: attenuated”, the “lactate induced increases in core body temperature” value is “block; also recorded: attenuated” and the “lactate induced increases in heart rate” value is reported as “attenuated”. For the same molecule, in the data set on panic-prone rats (setting [7]), the “anxiety-like responses (social interaction duration) after sodium lactate” value is “blocks”, the “lactate induced increases in core body temperature” value is given as “blocks” and the “lactate induced increases in heart rate” value is listed as “blocks”. Moreover, in [2], the “BMI-evoked increase in blood pressure” value was “significant attenuation”, the “BMI-evoked increase in core body temperature” value was “significant attenuation” and the “BMI-evoked increase in heart rate” value is “significant attenuation”. The “anxiety-like behavior (time spent in center of open field) in OVEX rats” value in data set [1] was “reverses anxiogenic effects”. For the same molecule, the “anxiety-like behavior (time spent in center of open field) in OVEX rats” value in [1] (listed as ORX 1 receptor antagonist) was “reverse the anxiogenic effects of OVEX”. Moreover, in data set [3] (setting [8]), the “intensity of the hot flash (tail skin temperature) after 20% CO2” value is on record as “reduces the intensity” and the “onset of the hot flash (tail skin temperature) after 20% CO2” value is “delays the onset”. In addition, the “baseline levels of tail temp in controls” value in data set [3] (sham-OVEX controls) is listed as “reduced baseline levels of tail temp”. Further, in data set [4], the “crossing of blood brain barrier” value is reported as “crosses blood brain barrier” and the “duration of central activity” value was above 4 h.

For the molecule `CNC(=O)[C@@H](c1ccccc1)N1CCc2cc(OC)c(OC)cc2[C@@H]1CCc1ccc(C(F)(F)F)cc1` [Almorexant], the “mode of orexin receptor antagonism” value in the data set with ORX1 and ORX2 receptors was “competitive, dual ORX1 and ORX2 receptor antagonists”. In addition, the “safety and side effects in phase III trials” value in [5] is reported as “safe, have few side effects”.

For the molecule `C[C@]12CC[C@@H]3c4ccc(O)cc4CC[C@H]3[C@@H]1CC[C@@H]2O` [E2, 17-β-estradiol], in the data set on OVEX'ed rats, the “anxiety behaviors in the elevated plus maze (EPM) and open field tests (OFT)” value (“anxiety behaviors” below) was “decreased anxiety behaviors”; the “block of the anxiety induced by OVEXing a female rat” value (shortened to “block of the anxiety induced”) was “block the anxiety”.

For `Cc1ccc(-n2nccn2)c(C(=O)N2CCN(c3nc4cc(Cl)ccc4o3)CC[C@H]2C)c1` [MK4305], in the data set with ORX1 and ORX2 receptors, the “mode of orexin receptor antagonism” value was “competitive, dual ORX1 and ORX2 receptor antagonists”. The “safety and side effects in phase III trials” value in data set [5] was “safe, have few side effects”.

As for `Clc1cccc(Cl)c1N=C1NCCN1` [clonidine], the “incidence of hot flashes in menopausal women” value in the data set on menopausal women (Freedman et al, 1990) is given as “reduce the incidence”.

For the molecule `COC(=O)[C@@H]1[C@H]2C[C@H]3c4[nH]c5ccccc5c4CCN3C[C@@H]2CC[C@@H]1O` [yohimbine], the “cellular responses (c-Fos induction) in ORX neurons” value in the data set with ORX-ir neurons was “increase cellular activity in ORX neurons”. Besides, the tail skin temperature entry in [6] (female OVEX vs sham-OVEX rats, FIG. 5B) is “rapidly increase tail skin temp in female OVEX, but not sham OVEX control rats”. In data set [6] (yohimbine challenge), the “core body temp following tail skin temp increase” value was “dramatic drop”. Besides, the “provocation of hot flashes” value in the data set on menopausal women (intravenous infusions, symptomatic, but not asymptomatic, menopausal women) is “provokes”.

Turning to `CCCc1c(-c2ccc(O)cc2)nn(-c2ccc(O)cc2)c1-c1ccc(O)cc1` [PPT, Tris(4-hydroxyphenyl)-4-propyl-1Hpyrazole], in the data set with OVEX'ed rats, the “anxiety behaviors” value is “increase anxiety behaviors”; the “block of the anxiety induced” value was “not”.

As for `N#CC(Cc1ccc(O)cc1)c1ccc(O)cc1` (stereo not drawn) [DPN, diarylpropionitrile], in the data set on OVEX'ed rats, the “anxiety behaviors” value is recorded as “decreased anxiety behaviors”; the “block of the anxiety induced” value is “block the anxiety”.
